No end group written: not given here.
Experiments:
tPA = target: T1, tPA (Homo sapiens, UniProt P00750); experiment: Halo clot thrombolysis assay, tPA thrombolysis of whole blood clots; assay type: biochemical; details: tPA 5 nM, 27.5% human plasma; for Increase in tPA lag time / Increase in tPA thrombolysis maximal activity: concurrent study, 37 °C
T1 construct: purchased Boehringer Ingelheim, Germany 10 mg vial
Procedure: (§1) We utilised a high throughput 96-well plate thrombolysis assay (“halo clot assay”) based on the procedure developed by Bonnard et al.. To reduce assay components the halo thrombus formation procedure was modified by replacing the original thrombotic mixture consisting of recombinant tissue factor and synthetic phospholipids reconstituted in 30 mM calcium, with thrombin, and reducing the pro-thrombotic volume (i.e., thrombin) from 5 to 3 µL and blood volume from 25 to 12 µL. Another modification to simplify clot formation consisted of adding the thrombin (3 µL; 500 nM in saline) to one side of the well and 12 µL of blood to the opposite side of well, before using a heat stretched Pasteur pipette with sealed end to mix the two liquids together using 4 to 5 circular motions around the edge of the well (halo clot). The original methodology involved adding the 5 μL of the clotting mixture to the edge of the well, and then using a micropipette to slowly release the 25 μL of blood to the edge of the well while at the same time maintaining a circular motion. Plates were incubated in a humidified 37 °C incubator for 1 h before use in the thrombolysis assay.
(§2) The thrombolysis assay involved adding 30 µL of Tris buffer (50 mM Tris–HCl, 100 mM NaCl, pH 7.4) with or without peptide followed by 55 µL Tris buffer containing tPA or TNK (5 nM final concentration) and 50% human plasma (final plasma concentration during thrombolysis 27.5%). The final concentration of peptide during thrombolysis ranged from 0.25 to 16 µM (note: an intravenous dose of R18D at 350 nmol/kg, which is likely to be neuroprotective achieves a Cmax of 0.7–0.9 µM in healthy male and female rats; unpublished observation). […] Following the addition of tPA or TNK into the wells, clot lysis was monitored over a 1-h period at 37 °C using a plate reader (Cytation5, BioTek, USA) by measuring absorbance at 510 nm every 1 min immediately after orbital shaking (205 rpm for 5 s). Controls consisted of wells with no thrombin (100% clot lysis; L100%) and wells with no tPA or TNK (0% clot lysis; L0%). At the 1-h time point, the percentage of thrombolysis (%T) in tPA or TNK treated samples (LTX) was calculated by transforming absorbance values based on the formula: % T = (LTX) − (L0%)/(L100%) − (L0%) × 100. In addition, during the 1-h period of clot lysis lag time and maximal activity (also known as maximum velocity or Vmax) of the thrombolysis reaction were calculated. The lag time is defined as the time interval between the first absorbance reading (time = 0) and the line of maximum slope of the thrombolysis reaction. The maximal activity is calculated from the maximum slope over the time course of the assay and reflects the capacity of an enzyme to catalyse a reaction (i.e., thrombolysis), with higher values representing higher catalytic activity (i.e., tPA/TNK induced plasmin thrombolysis).
(§3) For each thrombolysis assay, replicates for control wells (L0% and L100%) and tPA or TNK only treated wells consisted of n = 4–8. Replicates for tPA or TNK and peptide treated wells consisted of n = 4. For data analysis and graphical representations of the results, data from three independent thrombolytic assays were pooled. Studies consisted of R18D, R18 and NA-1 examined at the 0.5, 1, 2, 4, 8 or 16 µM concentrations performed concurrently on the same 96-well plate, in respective order. In addition, since R18D is known to be resistant to plasmin degradation and appeared to have the most impact on tPA or TNK thrombolysis, a separate set of three independent assays were performed for this peptide alone at concentrations of 0.25, 0.5, 1, 2, 4, 8 or 16 µM. Furthermore, the second dose study with R18D provided the opportunity to include a lower concentration (0.25 µM) of the peptide and to provide comparative data when only one peptide was examined in the thrombolysis assay per 96-well plate as opposed to examining the three peptides concurrently on the same plate. […]

TNK = target: T2, TNK (Homo sapiens, UniProt P00750, H332A/K331A/N152Q/R333A/R334A/T138N); experiment: Halo clot thrombolysis assay, TNK thrombolysis of whole blood clots; assay type: biochemical; details: concurrent study, 0.5-16 µM peptide, TNK 5 nM, 27.5% human plasma
T2 construct: purchased Boehringer Ingelheim 50 mg vial
T2 sequence (P00750 36-562 T138N/N152Q/K331A/H332A/R333A/R334A): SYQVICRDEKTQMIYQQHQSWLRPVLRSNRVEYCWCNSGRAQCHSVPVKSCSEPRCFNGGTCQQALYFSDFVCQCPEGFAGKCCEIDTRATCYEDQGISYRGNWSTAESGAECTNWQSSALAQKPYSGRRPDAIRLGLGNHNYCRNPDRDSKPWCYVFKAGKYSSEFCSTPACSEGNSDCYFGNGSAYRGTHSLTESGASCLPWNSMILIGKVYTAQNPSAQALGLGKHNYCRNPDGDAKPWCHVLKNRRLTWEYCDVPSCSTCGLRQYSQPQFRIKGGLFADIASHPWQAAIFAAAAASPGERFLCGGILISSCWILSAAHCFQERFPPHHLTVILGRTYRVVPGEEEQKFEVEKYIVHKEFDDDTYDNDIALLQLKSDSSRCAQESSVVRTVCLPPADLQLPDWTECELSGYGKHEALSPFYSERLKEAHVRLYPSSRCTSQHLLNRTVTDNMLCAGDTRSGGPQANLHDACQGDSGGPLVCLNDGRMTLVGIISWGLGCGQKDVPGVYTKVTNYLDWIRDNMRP
Procedure: as §1, §2, §3

tPA or TNK [1] = assay type: biochemical, human
Procedure: as §1, §2
For each thrombolysis assay, replicates for control wells (L0% and L100%) and tPA or TNK only treated wells consisted of n = 4–8. Replicates for tPA or TNK and peptide treated wells consisted of n = 4. For data analysis and graphical representations of the results, data from three independent thrombolytic assays were pooled. Studies consisted of R18D, R18 and NA-1 examined at the 0.5, 1, 2, 4, 8 or 16 µM concentrations performed concurrently on the same 96-well plate, in respective order. […]

tPA or TNK [2] = details: cited from earlier work
Excerpt: Given the potential future application of the R18D, R18 and NA-1 peptides as ischaemic stroke neurotherapeutics, it is important to establish if they interfere with current and future standard of care treatments, namely alteplase (tPA; recombinant tissue plasminogen activator) and tenecteplase (TNK; a modified version of tPA) thrombolysis, which are routinely administered prior to thrombectomy. Similarly, it is also important to determine whether tPA or TNK may cause proteolytic degradation of the peptides directly or through the activation of plasminogen to plasmin, thereby reducing their pot ...

[3] = tested on: Rat primary cortical cultures; parameters: method as in PMID 25669902; details: cited from earlier work
Procedure: To assess peptide proteolytic stability, R18 and R18D neuroprotective efficacy after incubation with tPA, TNK or trypsin was examined in the glutamic acid excitotoxicity model. Peptides were added to culture wells (96-well plate format) 5 min prior to glutamic acid exposure by removing media and adding 50 µL of media containing R18 or R18D at a 2 µM concentration. To induce excitotoxicity, 50 µL of Minimal Essential Media (Life Technologies)/2% B27 (MEM/B27) containing glutamic acid (200 µM: final concentration 100 µM; L-glutamic acid. L-glutamic acid was prepared as a 10,000 µM stock in water ...

[4] = tested on: patients undergoing thrombectomy; details: ESCAPE-NA-1 trial, subgroup analysis; cited from earlier work
Excerpt: The cationic arginine-rich peptides (CARPs) poly-arginine-18 (R18; 18-mer of L-enantiomer arginine; net charge + 18), its D-enantiomer (R18D) and NA-1 (also known as nerinetide or TAT-NR2B9c; net charge + 7) represent emerging neuroprotective therapies for the acute treatment of ischaemic stroke, especially prior to thrombolysis and endovascular thrombectomy.

T1 sequence (P00750 36-562): as the sequence (P00750 36-562 T138N/N152Q/K331A/H332A/R333A/R334A) above, with N103T, Q117N, A296K, A297H, A298R, A299R counted along it

YGRKKRRQRRRKLSSIESDV [NA-1, reference compound]
Increase in tPA lag time (tPA; peptide 1 µM): 5.4 min | Increase in tPA lag time (tPA; peptide 2 µM): 7.16 min | Increase in tPA thrombolysis maximal activity (tPA; peptide 2 µM): 40.68% | Increase in tPA thrombolysis maximal activity (tPA; peptide 4 µM): 45.1% | Increase in tPA thrombolysis maximal activity (tPA; peptide 8 µM): 58.65% | Increase in tPA thrombolysis maximal activity (tPA; peptide 16 µM): 45.65% | Effect on percentage tPA thrombolysis at 1 h vs tPA control (tPA; three peptides concurrently on the same plate, 0.5-16 µM peptide, Tris pH 7.4, 37 °C, 1 h, absorbance 510 nm, three independent assays pooled, n = 4, Dunnett's test): did not significantly inhibit thrombolysis | Effect on TNK lag time vs TNK control (TNK): did not significantly increase TNK lag time | Effect on TNK thrombolysis maximal activity vs TNK control (TNK): did not significantly impact TNK thrombolysis maximal activity | Effect on percentage TNK thrombolysis at 1 h vs TNK control (TNK; 37 °C, 1 h): did not significantly inhibit TNK thrombolysis | Increase in lag time (time to the commencement of thrombolysis) (tPA or TNK [1]; range over peptide concentrations 0.25-16 µM and both thrombolytics, 1-h assay): 0 to 7.16 min | Effect on maximal activity of the thrombolysis reaction (tPA or TNK [1]; summary in abstract): appeared to increase the maximal activity | Interference with the thrombolytic activity of tPA or TNK (tPA or TNK [2]): does not interfere | Neuroprotection in the glutamic acid excitotoxicity model [3]: no to little neuroprotection | Outcome of patients who received NA-1 but not alteplase compared with patients who received both NA-1 and alteplase [4]: significantly better functional outcomes, reduced mortality and reduced infarct volume

Reference: PMC9259545, “Impact of poly-arginine peptides R18D and R18 on alteplase and tenecteplase thrombolysis in vitro, and neuroprotective stability to proteolysis” (Journal of Thrombosis and Thrombolysis, 2022)
